Test results: paper PMC3628991, “Synthesis and evaluation of cell-permeable biotinylated PU-H71 derivatives as tumor Hsp90 probes” (Beilstein Journal of Organic Chemistry, 2013)
Entries after “also recorded” stand apart in the source; their conditions may differ.

Columns and labels:
[1] = tested on: cytosolic Hsp90 versus Grp94; experiment: Paralogue selectivity of affinity purification from K562 lysates (Western blot); parameters: species or system human; details: overnight, probes 50 µM
Protocol: (§1) Chemical precipitation from cell lysates. K562 cells were sonicated in 20 mM HEPES, pH 7.3, 50 mM KCl, 5 mM MgCl2, 20 mM Na2MoO4, and 0.01% NP40 lysis buffer containing added protease inhibitors. Affinity beads were prepared by addition of the biotinylated probes to the streptavidin agarose resin (40 μL) (Thermo Scientific), which was first washed three times with the lysis buffer. […] The protein extract (500 μg) was then added to the probe-bound beads, and samples were incubated at 4 °C overnight. Following five washes with lysis buffer, the protein isolates were subjected to SDS-PAGE.

[2] = tested on: Raf-1 (Hsp90 onco-client) in K562 cells; experiment: Raf-1 steady-state levels by Western blot; assay type: cell-based, human; details: for Effect on Raf-1 steady-state levels (Raf-1 degradation): K562 cells, 24 h, probes at 5, 10 and 20 µM; for Cancer-cell permeability / uptake: judged from Raf-1 degradation and growth inhibition in K562 cells
Excerpt: (§2) Having shown that each of the prepared biotinylated molecules retained good affinity for Hsp90, we next evaluated these compounds in two functional read-outs that together measure that the probe has entered a live cancer cell and once inside the cell, has bound to a substantial fraction of oncogenic Hsp90 molecules. Specifically, K562 is a human leukemia cell line dependent on Hsp90 for survival. Thus, in such cells, occupancy of Hsp90’s regulatory pocket by small molecules results in inhibition of its cancer-sheltering properties, leading to cell-growth inhibition associated with degradation of Hsp90-chaperoned onco-proteins. These, such as is the case for Raf-1 in K562 cells, become ubiquitinated and targeted for proteasomal degradation leading to a decrease in their steady-state levels (Figure 2a, Raf-1).
Western blotting. The K562 cell line was purchased from the American Type Culture Collection (Manassas, VA) and cultured in Roswell Park Memorial Institute (RPMI) supplemented with 10% fetal bovine serum, 1% L-glutamine, 1% penicillin and streptomycin. Cells were plated for 24 h prior to treatment for the indicated times with DMSO (vehicle) or with the indicated compounds. Protein extracts were prepared in 50 mM Tris pH 7.4, 150 mM NaCl and 1% NP-40 lysis buffer. Protein concentrations were measured by using the BCA kit (Pierce) according to the manufacturer's instructions. Protein lysates (50 μg) were resolved by SDS-PAGE, transferred onto nitrocellulose membrane and incubated with an anti-Raf-1 antibody from rabbit (1:500, sc-133, Santa Cruz) or anti-β-actin from mouse (1:2,500, A1978, Sigma-Aldrich). Membranes were then incubated with the corresponding peroxidase-conjugated secondary antibody (1:3,000 dilution) and visualized by the ECL detection reagent (Amersham).

[3] = tested on: Hsp90 and Hsp90/Raf-1 complexes; experiment: Chemical precipitation (affinity purification on streptavidin beads) from live K562 cells; assay type: cell-based, human; details: for Isolation of Hsp90 in complex with onco-client protein Raf-1: live K562 cells, Coomassie and Raf-1 immunoblot; for Isolation of Hsp90 from live K562 cells (band at 90 kDa, Coomassie): live K562 cells incubated 4 h, then permeabilized, streptavidin beads
Protocol: To test for the probes’ ability to isolate Hsp90 in secondary and tertiary complexes, such as those containing onco-client proteins, affinity purifications were also performed from live K562 cancer cells (Figure 2d). In such a case, the biotinylated tool is added to live cells where the compound binds to Hsp90 in an onco-client-bound conformation, locking and preserving the endogenous Hsp90/protein complexes throughout the subsequent experimental steps (i.e., permeabilization). In contrast, when adding a biotinylated tool to cell homogenates, one may encounter two potential limitations. First, due to the dynamic nature of the Hsp90/client protein interactions, the endogenous complexes may be lost during the homogenization process and thus, pull-downs from homogenates may miss important interactors. Second, during homogenization, certain proteins may lose their well-regulated conformation and potentially aggregate. Such misfolded proteins are prone to be captured by chaperones resulting in “false positives” (i.e., nonendogenous Hsp90 client proteins). False positives increase the “background” on the affinity resin, and the higher the background, the poorer the identification of relevant endogenous Hsp90 complexes will be. Therefore, while it is true that following the addition of the biotinylated tool to cells, these are permeabilized or fixed/permeabilized and thus no longer alive, the capture of the oncogenic Hsp90 complexes takes place in the live cell.
Consequently, in live-cell experiments, cells were first incubated with the biotinylated PU-H71 derivatives to trap and maintain the onco-client complexed to Hsp90. Next, cells were ruptured into a physiological buffer containing molybdate. The purpose of this step is to release the proteins from the cell yet maintain the Hsp90/onco-client protein complexes intact. Following capture of these complexes on the streptavidin beads, complexes were applied to a denaturing gel, then probed by both Coomassie stain (Figure 2d, top panel) and immunoblot (Figure 2d, bottom panel Raf-1 blot).
Chemical precipitation from cells. K562 cells were treated with the indicated compounds for 4 h, after which cells were collected and washed three times with PBS. Protein extracts were prepared by sonicating cells in 20 mM HEPES, pH 7.3, 50 mM KCl, 5 mM MgCl2, 20 mM Na2MoO4, 0.01% NP40 lysis buffer. Streptavidin agarose beads (40 μL) (Thermo Scientific) were washed three times with the lysis buffer and added to 500 μg of the total cellular protein extract diluted in lysis buffer to a final volume of 120 μL. Samples were incubated at 4 °C for 1 h, washed five times with the lysis buffer (or high salt buffer containing 1 M NaCl added to the lysis buffer) and applied to SDS-PAGE. Gels were stained with Coomassie blue (BioRad) according to the manufacturer's instructions.

Hsp90 [4] = experiment: Affinity for Hsp90 paralogues: cytosolic Hsp90; assay type: binding; details: paralogue comparison
Hsp90 [5] = experiment: Chemical precipitation (affinity purification on streptavidin beads) from K562 cell lysates; parameters: species or system human; details: high-salt wash, Coomassie stain, 10, 25 and 50 µM
Protocol: Having identified which compounds were capable or not of permeating live cancer cells, we next wanted to determine whether the chain length was optimal to maintain concomitant binding to Hsp90 and streptavidin, so as to allow for isolation and identification of Hsp90/onco-client complexes from cancer cells. For this purpose, K562 lysates (Figure 2b and c) were incubated with the biotinylated ligands and the complexes captured on streptavidin beads. To test for the probe’s selectivity, pull-downs were performed with increasing concentrations of biotinylated derivatives (10, 25 and 50 µM; Figure 2c). Additionally, affinity-purified complexes were washed with high-salt buffer to remove Hsp90-bound co-chaperones and client proteins (Figure 2b and c).
as §1

Grp94 = Grp94 (Homo sapiens, UniProt P14625); experiment: Affinity for Hsp90 paralogues: Grp94; assay type: binding; details: paralogue comparison
Sequence of Grp94 (P14625 22-803, species assumed): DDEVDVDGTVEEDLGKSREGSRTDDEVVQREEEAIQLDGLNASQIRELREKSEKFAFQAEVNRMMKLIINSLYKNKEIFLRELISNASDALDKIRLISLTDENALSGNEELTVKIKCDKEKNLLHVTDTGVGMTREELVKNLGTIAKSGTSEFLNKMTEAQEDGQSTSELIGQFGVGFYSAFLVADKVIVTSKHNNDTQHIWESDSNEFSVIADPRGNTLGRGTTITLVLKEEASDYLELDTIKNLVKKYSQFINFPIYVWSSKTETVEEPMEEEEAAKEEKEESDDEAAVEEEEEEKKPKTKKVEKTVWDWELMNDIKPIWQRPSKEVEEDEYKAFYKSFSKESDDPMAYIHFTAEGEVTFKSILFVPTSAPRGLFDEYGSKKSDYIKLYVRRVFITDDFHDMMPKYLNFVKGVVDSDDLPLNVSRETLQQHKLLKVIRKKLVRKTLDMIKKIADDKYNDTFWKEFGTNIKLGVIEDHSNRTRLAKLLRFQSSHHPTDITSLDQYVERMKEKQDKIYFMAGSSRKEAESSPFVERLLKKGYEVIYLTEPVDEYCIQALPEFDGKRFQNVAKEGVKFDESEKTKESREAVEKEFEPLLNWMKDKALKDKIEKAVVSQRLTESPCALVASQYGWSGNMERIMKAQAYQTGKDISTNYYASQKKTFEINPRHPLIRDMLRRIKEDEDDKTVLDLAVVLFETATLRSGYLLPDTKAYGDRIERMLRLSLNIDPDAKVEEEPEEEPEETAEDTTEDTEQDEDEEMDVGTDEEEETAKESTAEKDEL

K562 cells = experiment: Growth inhibition assay (Alamar Blue); assay type: cell-based; details: Homo sapiens; Figure 2a; K562, 72 h, Alamar Blue; read-out: IC50 Growth inhibition
Excerpt: as §2
Growth inhibition assay. The effect of compounds on cell growth was evaluated with the Alamar Blue assay. In summary, K562 cells were plated at 20,000 cells/well on Costar 96-well plates. Treatment with the probes added at the indicated concentrations in triplicate wells was performed on the subsequent day and lasted for 72 h. The Alamar Blue reagent resazurin (440 μM stock) was added at the end of the treatment to result in a final concentration of 50 μM. Plates were read 6 h later by using the Analyst GT instrument (Fluorescence intensity mode, excitation 530 nm, emission 580 nm, with 560 nm dichroic mirror). Results were analyzed in SoftMax Pro. The percentage of cell growth inhibition was calculated by comparing fluorescence readings obtained from treated versus control cells, accounting for the initial cell population (time zero). The IC50 was calculated as the drug concentration that inhibits cell growth by 50%.

[6] = tested on: tumor cell Hsp90 complexes (SKBr3 human breast cancer lysate); experiment: Hsp90 fluorescence polarization competition assay (GM-cy3B displacement) in SKBr3 cancer-cell lysate; assay type: binding; details: read-out: Affinity for Hsp90 (FP)
Excerpt: The fraction of tracer bound to Hsp90 was correlated to the mP value and plotted against values of competitor concentrations. The inhibitor concentration at which 50% of bound GM was displaced was obtained by fitting the data.

Row | SMILES | Preference in affinity purification of cytosolic Hsp90 over Grp94 [1] | Effect on Raf-1 steady-state levels (Raf-1 degradation) [2] | Isolation of Hsp90 in complex with onco-client protein Raf-1 [3] | Affinity for Hsp90 (Hsp90 [4]) [nM] | Isolation of Hsp90 from K562 lysates on streptavidin beads (Hsp90 [5]) | Affinity for Grp94 (Grp94) [nM] | IC50 (K562 cells) [nM] | Isolation of Hsp90 from live K562 cells (band at 90 kDa, Coomassie) [3] | Cancer-cell permeability / uptake [2] | EC50 [6] [nM]
1 | Nc1ncnc2c1nc(Sc1cc3c(cc1I)OCO3)n2CCCNC(=O)CCOCCOCCOCCOCCNC(=O)CCCC[C@@H]1SC[C@@H]2NC(=O)N[C@@H]21 [2i] | substantial preference | failed to exhibit such properties; also recorded: failed to substantially degrade Raf-1 | Most efficient | 83 | isolated substantial amounts of Hsp90 | 226 | 8590 | – | – | –
2 | CC(C)N(CCCn1c(Sc2cc3c(cc2I)OCO3)nc2c(N)ncnc21)C(=O)CCCCCNC(=O)CCCC[C@@H]1SC[C@@H]2NC(=O)N[C@@H]21 [2d] | – | almost complete Raf-1 degradation | – | – | – | – | 2190 | faint band or no band at 90 kDa | – | –
3 | CC(C)N(CCCn1c(Sc2cc3c(cc2I)OCO3)nc2c(N)ncnc21)C(=O)CCCC[C@@H]1SC[C@@H]2NC(=O)N[C@@H]21 [2b] | – | almost complete Raf-1 degradation | – | – | unable to affinity purify Hsp90 | – | 2630 | faint band or no band at 90 kDa | – | –
4 | Nc1ncnc2c1nc(Sc1cc3c(cc1I)OCO3)n2CCCNCCOCCOCCOCCNC(=O)CCCC[C@@H]1SC[C@@H]2NC(=O)N[C@@H]21 [2a] | – | – | – | – | modest probe for affinity purifications | – | 5000 | – | poor cancer-cell permeability | –
5 | Nc1ncnc2c1nc(Sc1cc3c(cc1I)OCO3)n2CCCNC(=O)CCCCCNC(=O)CCCCCNC(=O)CCCC[C@@H]1SC[C@@H]2NC(=O)N[C@@H]21 [2g] | substantial preference | almost complete Raf-1 degradation | Most efficient | 45 | isolated substantial amounts of Hsp90 | 451 | 1130 | – | substantially taken up by the cancer cell; also recorded: good permeability | –
6 | Nc1ncnc2c1nc(Sc1cc3c(cc1I)OCO3)n2CCCNC(=O)CCCCCNC(=O)CCCC[C@@H]1SC[C@@H]2NC(=O)N[C@@H]21 [2e] | – | almost complete Raf-1 degradation | – | – | unable to affinity purify Hsp90 | – | 1350 | faint band or no band at 90 kDa | – | –
7 | Nc1ncnc2c1nc(Sc1cc3c(cc1I)OCO3)n2CCCNC(=O)CCCC[C@@H]1SC[C@@H]2NC(=O)N[C@@H]21 [2c] | – | almost complete Raf-1 degradation | – | – | unable to affinity purify Hsp90 | – | 250 | faint band or no band at 90 kDa | – | –
8 | CC(C)N(CCCn1c(Sc2cc3c(cc2I)OCO3)nc2c(N)ncnc21)C(=O)CCOCCOCCOCCOCCNC(=O)CCCC[C@@H]1SC[C@@H]2NC(=O)N[C@@H]21 [2h] | substantial preference | failed to exhibit such properties; also recorded: failed to substantially degrade Raf-1 | Most efficient | 137 | isolated substantial amounts of Hsp90 | 313 | 7010 | – | – | –
9 | NCCCn1c(Sc2cc3c(cc2I)OCO3)nc2c(N)ncnc21 [1b] | – | – | – | – | – | – | – | – | – | 26
10 | CC(C)N(CCCn1c(Sc2cc3c(cc2I)OCO3)nc2c(N)ncnc21)C(=O)CCCCCNC(=O)CCCCCNC(=O)CCCC[C@@H]1SC[C@@H]2NC(=O)N[C@@H]21 [2f] | substantial preference | failed to exhibit such properties; also recorded: to some degree | Most efficient | 98 | isolated substantial amounts of Hsp90 | 210 | 4960 | – | – | –
